US6348435B1, “Substituted 2,4-diamino-1,3,5-triazine and their use as herbicides” (Bayer Aktiengesellschaft, priority 1997, dated 2002)

Key:
[1] = tested on: weeds; assay: Post-emergence test, summary on weeds; assay type: in vivo; settings: result in words
Experimental: (§1) Solvent: 5 parts by weight of acetone
(§2) Emulsifier: 1 part by weight of alkylaryl polyglycol ether
(§3) To produce a suitable preparation of active compound, 1 part by weight of active compound is mixed with the stated amount of solvent, the stated amount of emulsifier is added and the concentrate is diluted with water to the desired concentration.
(§4) Test plants having a height of 5-15 cm are sprayed with the preparation of active compound such that the particular amounts of active compound desired are applied per unit area. The concentration of the spray liquor is chosen so that the particular amounts of active compound desired are applied in 1000 l of water/ha.
(§5) After three weeks, the degree of damage to the plants is rated in % damage in comparison with the development of the untreated control.
(§6) 0%=no effect (like untreated control)

[2] = tested on: Maize; assay: Pre-emergence test/greenhouse; assay type: in vivo; settings: for tolerance by crop plants, such as, for example, maize: pre-emergence test, result in words; for degree of damage to the plants, Maize: pre-emergence, 1000 g of ai./ha, rated after three weeks vs untreated control, 0%=no effect, 100%=total destruction
Experimental: (§7) Pre-emergence Test Solvent: 5 parts by weight of acetone Emulsifier: 1 part by weight of alkylaryl polyglycol ether To produce a suitable preparation of active compound, 1 part by weight of active compound is mixed with the stated amount of solvent, the stated amount of emulsifier is added and the concentrate is diluted with water to the desired concentration. Seeds of the test plants are sown in normal soil. After about 24 hours, the soil is sprayed with the preparation of active compound such that the particular amounts of active compound desired are applied per unit area. The concentration of the spray liquor is chosen so that the particular amounts of active compound desired are applied in 1000 l of water/ha. After three weeks, the degree of damage to the plants is rated in % damage in comparison with the development of the untreated control. The figures denote: 0%=no effect (like untreated control) 100%=total destruction

[3] = tested on: weeds; assay: Pre-emergence test, summary on weeds; assay type: in vivo; settings: result in words
Experimental: as §7

[4] = tested on: Amaranthus; assay: Pre-emergence test/greenhouse; assay type: in vivo; settings: 1000 g of ai./ha, rated after three weeks vs untreated control, 0%=no effect, 100%=total destruction
Experimental: as §7

[5] = tested on: Galium; assay: Pre-emergence test/greenhouse; assay type: in vivo; settings: 1000 g of ai./ha, rated after three weeks vs untreated control, 0%=no effect, 100%=total destruction
Experimental: as §7

[6] = tested on: Setaria; assay: Pre-emergence test/greenhouse; assay type: in vivo; settings: 1000 g of ai./ha, rated after three weeks vs untreated control, 0%=no effect, 100%=total destruction
Experimental: as §7

[7] = tested on: Sinapis; assay: Pre-emergence test/greenhouse; assay type: in vivo; settings: 1000 g of ai./ha, rated after three weeks vs untreated control, 0%=no effect, 100%=total destruction
Experimental: as §7

[8] = tested on: Abutilon; assay: Post-emergence test/greenhouse; assay type: in vivo; settings: 504 h, 1000 g of ai./ha, plants 5-15 cm sprayed, rated after three weeks vs untreated control, 0%=no effect, 100%=total destruction, read-out: degree of damage to the plants, Abutilon
Experimental: as §1, §2, §3, §4, §5, §6

[9] = tested on: Amaranthus; assay: Post-emergence test/greenhouse; assay type: in vivo; settings: 504 h, 1000 g of ai./ha, plants 5-15 cm sprayed, rated after three weeks vs untreated control, 0%=no effect, 100%=total destruction, read-out: degree of damage to the plants, Amaranthus
Experimental: as §1, §2, §3, §4, §5, §6

[10] = tested on: Maize; assay: Post-emergence test/greenhouse; assay type: in vivo; settings: Zea mays, 504 h, 1000 g of ai./ha, plants 5-15 cm sprayed, rated after three weeks vs untreated control, 0%=no effect, 100%=total destruction, read-out: degree of damage to the plants, Maize
Experimental: as §1, §2, §3, §4, §5, §6

[11] = tested on: Sinapis; assay: Post-emergence test/greenhouse; assay type: in vivo; settings: 504 h, 1000 g of ai./ha, plants 5-15 cm sprayed, rated after three weeks vs untreated control, 0%=no effect, 100%=total destruction, read-out: degree of damage to the plants, Sinapis
Experimental: as §1, §2, §3, §4, §5, §6

[12] = tested on: Setaria; assay: Post-emergence test/greenhouse; assay type: in vivo; settings: 504 h, 1000 g of ai./ha, plants 5-15 cm sprayed, rated after three weeks vs untreated control, 0%=no effect, 100%=total destruction, read-out: degree of damage to the plants, Setaria
Experimental: as §1, §2, §3, §4, §5, §6

[13] = tested on: Xanthium; assay: Post-emergence test/greenhouse; assay type: in vivo; settings: 1000 g of ai./ha, plants 5-15 cm sprayed, rated after three weeks vs untreated control, 0%=no effect, 100%=total destruction
Experimental: as §1, §2, §3, §4, §5, §6

Compound	action against weeds [1]	pest or weed control at 1000 g/ha [8]	pest or weed control at 1000 g/ha [9]	plant injury at 1000 g/ha [10]	pest or weed control at 1000 g/ha [11]	pest or weed control at 1000 g/ha [12]	other results
CCc1nc(N)nc(NC(C)c2cccs2)n1 (stereo not shown) [Example 1, 2-amino-4-ethyl-6-(1-thien-2-yl-ethylamino)-1,3,5-triazine]	strong action						
CCc1nc(NC(C)=O)nc(NC(C)c2cccs2)n1 (stereo not shown) [Example 2, 2-acetylamino-4-ethyl-6-(1-thien-2-yl-ethyl-amino)-1,3,5-triazine]	strong action						melting point: 153 °C
CC(Nc1nc(N)nc(C(Cl)Cl)n1)c1cccs1 (stereo not shown) [Example 5]	strong action						melting point: 135 °C
CC(Cl)c1nc(N)nc(NC(C)c2cccs2)n1 (stereo not shown) [Example 6]	strong action						melting point: 125 °C
CCc1nc(N)nc(NC(CC)c2cccs2)n1 (stereo not shown) [Example 11]	strong action						
CCC(Nc1nc(N)nc(C(Cl)Cl)n1)c1cccs1 (stereo not shown) [Example 13]	strong action						
CCC(Nc1nc(N)nc(C(C)Cl)n1)c1cccs1 (stereo not shown) [Example 14]	strong action						
CCC(Nc1nc(N)nc(C(C)F)n1)c1cccs1 (stereo not shown) [Example 15]	strong action						tolerance by crop plants, such as, for example, maize [2]: tolerated very well; action against weeds [3]: strong action
CCC(Nc1nc(N)nc(C(F)C(F)(F)F)n1)c1cccs1 (stereo not shown) [Example 16]	strong action						
CCc1nc(NC(C)=O)nc(NC(CC)c2cccs2)n1 (stereo not shown) [Example 18]	strong action						
CCC(Nc1nc(NC(C)=O)nc(C(Cl)Cl)n1)c1cccs1 (stereo not shown) [Example 20]	strong action						melting point: 131 °C
CCC(Nc1nc(NC(C)=O)nc(C(C)Cl)n1)c1cccs1 (stereo not shown) [Example 21]	strong action						
CCC(Nc1nc(NC(C)=O)nc(C(C)F)n1)c1cccs1 (stereo not shown) [Example 22]	strong action						tolerance by crop plants, such as, for example, maize [2]: tolerated very well; action against weeds [3]: strong action
CCC(Nc1nc(NC(C)=O)nc(C(C)(Cl)Cl)n1)c1cccs1 (stereo not shown) [Example 24]	strong action						melting point: 113 °C
CCC(Nc1nc(N)nc(C(C)F)n1)c1cccs1 (stereo not shown) [drawing 223]							degree of damage to the plants, Amaranthus [4]: 100%; degree of damage to the plants, Galium [5]: 100%; degree of damage to the plants, Maize [2]: 0%; degree of damage to the plants, Setaria [6]: 90%
CCC(Nc1nc(NC(C)=O)nc(C(C)F)n1)c1cccs1 (stereo not shown) [drawing 224]							degree of damage to the plants, Amaranthus [4]: 95%; degree of damage to the plants, Galium [5]: 100%; degree of damage to the plants, Maize [2]: 0%; degree of damage to the plants, Setaria [6]: 100%; degree of damage to the plants, Sinapis [7]: 100%
CCc1nc(N)nc(NC(C)c2cccs2)n1 (stereo not shown) [drawing 225]		100%	100%	30%	100%		
CCc1nc(NC(C)=O)nc(NC(C)c2cccs2)n1 (stereo not shown) [drawing 226]		100%	100%	0%	100%	90%	
CCc1nc(N)nc(NC(CC)c2cccs2)n1 (stereo not shown) [drawing 227]		100%	100%	30%	100%	100%	
CCC(Nc1nc(N)nc(C(C)Cl)n1)c1cccs1 (stereo not shown) [drawing 228]		100%	100%	30%	100%	100%	
CCC(Nc1nc(N)nc(C(C)F)n1)c1cccs1 (stereo not shown) [drawing 229]		100%	100%	0%	100%	100%	
CCC(Nc1nc(N)nc(C(F)C(F)(F)F)n1)c1cccs1 (stereo not shown) [drawing 230]		100%	100%	10%	100%	100%	
CCc1nc(NC(C)=O)nc(NC(CC)c2cccs2)n1 (stereo not shown) [drawing 231]		100%	100%	20%	100%	100%	
CCC(Nc1nc(NC(C)=O)nc(C(Cl)Cl)n1)c1cccs1 (stereo not shown) [drawing 232]		100%	100%	0%	100%	100%	
CCC(Nc1nc(NC(C)=O)nc(C(C)Cl)n1)c1cccs1 (stereo not shown) [drawing 233]		100%	100%	0%	100%	100%	
CC(Nc1nc(N)nc(C(Cl)Cl)n1)c1cccs1 (stereo not shown) [drawing 234]		100%	100%		100%	90%	
CCC(Nc1nc(NC(C)=O)nc(C(C)F)n1)c1cccs1 (stereo not shown) [drawing 235]		100%	100%		100%	100%	
CC(Cl)c1nc(N)nc(NC(C)c2cccs2)n1 (stereo not shown) [drawing 236]		100%	100%	0%			degree of damage to the plants, Xanthium [13]: 100%
CCC(Nc1nc(N)nc(C(Cl)Cl)n1)c1cccs1 (stereo not shown) [drawing 237]			100%	10%	100%	100%	degree of damage to the plants, Xanthium [13]: 80%
CCC(Nc1nc(NC(C)=O)nc(C(C)(Cl)Cl)n1)c1cccs1 (stereo not shown) [drawing 238]			100%		100%	100%	degree of damage to the plants, Xanthium [13]: 100%
